According to patent publication US6914045B2, “Glycopeptide antibiotics” (Wyeth Holdings Corporation, priority 2001, dated 2005):
Values after ≈ are worked out from the molar mass of the structure shown.

Columns and labels:
Streptococcus sp. = test: in vitro antibacterial evaluation, MIC by broth dilution; format: cell-based; conditions: broth dilution, 18 hours at 35° C.
Summary of the method: (§1)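 Following National Committee for Clinical Laboratory Standards recommendations (M7-A2), susceptibility was measured by dilution in Muller-Hinton II […]. Bacteria were seeded at 5×10^5 CFU/mL against compound concentrations from 64 down to 0.06 μg/mL.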

Staphylococcus sp. = test: as above; format: cell-based; conditions: broth dilution, 18 hours at 35° C.
Summary of the method: as §1

Enterococcus sp. = test: as above; format: cell-based; conditions: broth dilution, 18 hours at 35° C.
Summary of the method: as §1

Escherichia coli = test: as above; format: cell-based; conditions: 18 hours at 35° C.
Summary of the method: as §1

[1] = system: Staphylococcus aureus-SMITH (GC 4543); test: acute lethal infection in mice; format: in vivo; conditions: acute lethal infection, female CD-1 mice, intraperitoneal challenge, intravenous 30 min. after infection, 7 day survival
Summary of the method: (§2)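 Female CD-1 mice (20±2 g) got an intraperitoneal bacterial challenge lethal to untreated controls within 24–48 hr. Compound was dosed intravenously 30 min after infection, five mice per dose. ED50 was calculated from 7-day survival pooled across 3 tests.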

[2] = system: Enterococcus faecalis (GC 6189); test: acute lethal infection in mice; format: in vivo; conditions: female CD-1 mice, intraperitoneal challenge, intravenous 30 min. after infection, 7 day survival
Summary of the method: as §2

Cc1cccc(C2OCC3OC(OC4C(CO)OC(Oc5ccc(CC6NC(=O)C(C(C)c7ccccc7)NC(=O)CNC(=O)C(CO)NC(=O)C(C(O)C7CNC(=N)N7C7OC(CO)C(O)C(O)C7O)NC(=O)C(C(O)C7CNC(=N)N7)NC6=O)cc5)C(O)C4O)C(O)C(O)C3O2)c1 (stereo not drawn) [Example 135, Cyclo[glycyl-β-methylphenylalanyl-O-[4-O-[4,6-O-(3-methylbenzylidene)hexopyranosyl]-hexopyranosyl]tyrosyl-3-(2-iminoimidazolidin-4-yl)seryl-3-(3-hexopyranosyl-2-iminoimidazolidin-4-yl)serylseryl]]
MIC Streptococcus agalactiae (GC 4564) (Streptococcus sp.; Streptococcus agalactiae (GC 4564)): 0.25 µg/mL (≈ 0.179 µM) | MIC Streptococcus pneumoniae (ATCC 6301) (Streptococcus sp.; Streptococcus pneumoniae (ATCC 6301)): <0.06 µg/mL | MIC Streptococcus pneumoniae (GC 1894) (Streptococcus sp.; Streptococcus pneumoniae (GC 1894)): <0.06 µg/mL | MIC Streptococcus pneumoniae (GC 4565) (Streptococcus sp.; Streptococcus pneumoniae (GC 4565)): <0.06 µg/mL | MIC Streptococcus pyogenes (GC 4563) (Streptococcus sp.; Streptococcus pyogenes (GC 4563)): 0.25 µg/mL (≈ 0.179 µM) | MIC Streptococcus pneumoniae (ATCC 6301) (Streptococcus sp.; strain ATCC 6301): <0.06 µg/mL | MIC Streptococcus pneumoniae (GC 1894) (Streptococcus sp.; strain GC 1894): <0.06 µg/mL | MIC Streptococcus pyogenes (GC 4563) (Streptococcus sp.; strain GC 4563): 0.25 µg/mL (≈ 0.179 µM) | MIC Streptococcus agalactiae (GC 4564) (Streptococcus sp.; strain GC 4564): 0.25 µg/mL (≈ 0.179 µM) | MIC Streptococcus pneumoniae (GC 4565) (Streptococcus sp.; strain GC 4565): <0.06 µg/mL | MIC Staphylococcus aureus (ATCC 29213) (Staphylococcus sp.): 1 µg/mL (≈ 0.716 µM) | MIC Staphylococcus aureus (GC 1131) (Staphylococcus sp.): 1 µg/mL (≈ 0.716 µM) | MIC Staphylococcus aureus (GC 3051) (Staphylococcus sp.): 1 µg/mL (≈ 0.716 µM) | MIC Staphylococcus aureus (GC 3053) (Staphylococcus sp.): 1 µg/mL (≈ 0.716 µM) | MIC Staphylococcus aureus (GC 4541) (Staphylococcus sp.): 1 µg/mL (≈ 0.716 µM) | MIC Staphylococcus aureus (GC 4542) (Staphylococcus sp.): 1 µg/mL (≈ 0.716 µM) | MIC Staphylococcus aureus (GC 4544) (Staphylococcus sp.): 2 µg/mL (≈ 1.43 µM) | MIC Staphylococcus aureus (GC 4545) (Staphylococcus sp.): 1 µg/mL (≈ 0.716 µM) | MIC Staphylococcus aureus (GC 1131) (Staphylococcus sp.; inoculum 5×10^5 CFU/mL, strain GC 1131): 1 µg/mL (≈ 0.716 µM) | MIC Staphylococcus aureus (ATCC 29213) (Staphylococcus sp.; strain ATCC 29213): 1 µg/mL (≈ 0.716 µM) | MIC Staphylococcus aureus (GC 3051) (Staphylococcus sp.; strain GC 3051): 1 µg/mL (≈ 0.716 µM) | MIC Staphylococcus aureus (GC 3053) (Staphylococcus sp.; strain GC 3053): 1 µg/mL (≈ 0.716 µM) | MIC Staphylococcus aureus (GC 4541) (Staphylococcus sp.; strain GC 4541): 1 µg/mL (≈ 0.716 µM) | MIC Staphylococcus aureus (GC 4542) (Staphylococcus sp.; strain GC 4542): 1 µg/mL (≈ 0.716 µM) | MIC Staphylococcus aureus-SMITH (GC 4543) (Staphylococcus sp.; strain GC 4543): 1 µg/mL (≈ 0.716 µM) | MIC Staphylococcus aureus (GC 4544) (Staphylococcus sp.; strain GC 4544): 2 µg/mL (≈ 1.43 µM) | MIC Staphylococcus aureus (GC 4545) (Staphylococcus sp.; strain GC 4545): 1 µg/mL (≈ 0.716 µM) | MIC Staphylococcus haemolyticus (GC 4546) (Staphylococcus sp.; strain GC 4546): 0.5 µg/mL (≈ 0.358 µM) | MIC Coagulase Negative Staphylococcus (GC 4547) (Staphylococcus sp.; strain GC 4547): 1 µg/mL (≈ 0.716 µM) | MIC Coagulase Negative Staphylococcus (GC 4548) (Staphylococcus sp.; strain GC 4548): 0.5 µg/mL (≈ 0.358 µM) | MIC Coagulase Negative Staphylococcus (GC 4549) (Staphylococcus sp.; strain GC 4549): 0.5 µg/mL (≈ 0.358 µM) | MIC Coagulase Negative Staphylococcus (GC 4551) (Staphylococcus sp.; strain GC 4551): 1 µg/mL (≈ 0.716 µM) | MIC Coagulase Negative Staphylococcus (GC 6257) (Staphylococcus sp.; strain GC 6257): 0.5 µg/mL (≈ 0.358 µM) | MIC Staphylococcus aureus-SMITH (GC 4543) (Staphylococcus sp.; strain SMITH GC 4543): 1 µg/mL (≈ 0.716 µM) | MIC Enterococcus avium (GC 4558) (Enterococcus sp.; Enterococcus avium (GC 4558)): 2 µg/mL (≈ 1.43 µM) | MIC Enterococcus faecalis (ATCC 29212) (Enterococcus sp.; Enterococcus faecalis (ATCC 29212)): 2 µg/mL (≈ 1.43 µM) | MIC Enterococcus faecalis (GC 2242) (Enterococcus sp.; Enterococcus faecalis (GC 2242)): 2 µg/mL (≈ 1.43 µM) | MIC Enterococcus faecalis (GC 2691) (Enterococcus sp.; Enterococcus faecalis (GC 2691)): 2 µg/mL (≈ 1.43 µM) | MIC Enterococcus faecalis (GC 3059) (Enterococcus sp.; Enterococcus faecalis (GC 3059)): 2 µg/mL (≈ 1.43 µM) | MIC Enterococcus faecalis (GC 4552) (Enterococcus sp.; Enterococcus faecalis (GC 4552)): 2 µg/mL (≈ 1.43 µM) | MIC Enterococcus faecalis (GC 4553) (Enterococcus sp.; Enterococcus faecalis (GC 4553)): 2 µg/mL (≈ 1.43 µM) | MIC Enterococcus faecalis (GC 4554) (Enterococcus sp.; Enterococcus faecalis (GC 4554)): 2 µg/mL (≈ 1.43 µM) | MIC Enterococcus faecalis (GC 6189) (Enterococcus sp.; Enterococcus faecalis (GC 6189)): 2 µg/mL (≈ 1.43 µM) | MIC Enterococcus faecium (GC 2243) (Enterococcus sp.; Enterococcus faecium (GC 2243)): 2 µg/mL (≈ 1.43 µM) | MIC Enterococcus faecium (GC 4556) (Enterococcus sp.; Enterococcus faecium (GC 4556)): 2 µg/mL (≈ 1.43 µM) | MIC Enterococcus faecium (GC 4557) (Enterococcus sp.; Enterococcus faecium (GC 4557)): 2 µg/mL (≈ 1.43 µM) | MIC Enterococcus faecalis (ATCC 29212) (Enterococcus sp.; strain ATCC 29212): 2 µg/mL (≈ 1.43 µM) | MIC Enterococcus faecalis (GC 2242) (Enterococcus sp.; strain GC 2242): 2 µg/mL (≈ 1.43 µM) | MIC Enterococcus faecium (GC 2243) (Enterococcus sp.; strain GC 2243): 2 µg/mL (≈ 1.43 µM) | MIC Enterococcus faecalis (GC 2691) (Enterococcus sp.; strain GC 2691): 2 µg/mL (≈ 1.43 µM) | MIC Enterococcus faecalis (GC 3059) (Enterococcus sp.; strain GC 3059): 2 µg/mL (≈ 1.43 µM) | MIC Enterococcus faecalis (GC 4552) (Enterococcus sp.; strain GC 4552): 2 µg/mL (≈ 1.43 µM) | MIC Enterococcus faecalis (GC 4553) (Enterococcus sp.; strain GC 4553): 2 µg/mL (≈ 1.43 µM) | MIC Enterococcus faecalis (GC 4554) (Enterococcus sp.; strain GC 4554): 2 µg/mL (≈ 1.43 µM) | MIC Enterococcus faecium (GC 4556) (Enterococcus sp.; strain GC 4556): 2 µg/mL (≈ 1.43 µM) | MIC Enterococcus faecium (GC 4557) (Enterococcus sp.; strain GC 4557): 2 µg/mL (≈ 1.43 µM) | MIC Enterococcus avium (GC 4558) (Enterococcus sp.; strain GC 4558): 2 µg/mL (≈ 1.43 µM) | MIC Enterococcus faecalis (GC 6189) (Enterococcus sp.; strain GC 6189): 2 µg/mL (≈ 1.43 µM) | MIC Escherichia coli (ATCC 25922) (Escherichia coli; strain ATCC 25922): 32 µg/mL (≈ 22.9 µM) | MIC Escherichia coli (GC 4559) (Escherichia coli; strain GC 4559): 32 µg/mL (≈ 22.9 µM) | MIC Escherichia coli (GC 4560) (Escherichia coli; strain GC 4560): 0.5 µg/mL (≈ 0.358 µM) | median effective dose (ED50), Staphylococcus aureus-SMITH (GC 4543) [1]: 0.07 mg/kg | median effective dose (ED50), Enterococcus faecalis (GC 6189) [2]: 0.26 mg/kg
